Here are results for 27 compounds from patent US8916573B2, “Quinazoline-2,4-dione derivatives” (Actelion Pharmaceuticals Ltd., priority 2011, dated 2014).

Usually MIC stands for the smallest concentration in the dilution series that meets the test's criterion for growth inhibition. High values mean a need for much substance, low ones inhibition by little substance.

Structures are written as SMILES. In brackets after ≈: the same amount, converted by molar mass. Bounds are passed on as bounds.

The subject of the first experiment is S. aureus 29213. Briefly: Bacterial growth minimal inhibitory concentrations (microdilution, cation-adjusted Mueller-Hinton Broth, CLSI M7-A7). Type of experiment: cell-based. Particulars: Staphylococcus aureus, 29213; microdilution in cation-adjusted Mueller-Hinton Broth. As to the method: Bacterial Growth Minimal Inhibitory Concentrations: Minimal inhibitory concentrations (MICs; mg/l) were determined in cation-adjusted MuellerHinton Broth by a microdilution method following the description given in “Methods for Dilution Antimicrobial Susceptibility Tests for Bacteria that Grow Aerobically”, Approved standard, 7th ed., Clinical and Laboratory Standards Institute (CLSI) Document M7-A7, Wayne, Pa., USA, 2006. Typical antibacterial test results are given in Table 1 hereafter (MIC in mg/l).
`O=C1CSc2ccc(N3C[C@@H](CCCn4c(=O)[nH]c5ccc(F)cc5c4=O)OC3=O)cc2N1` [Example 26, 6-fluoro-3-{3-[(R)-2-oxo-3-(3-oxo-3,4-dihydro-2H-benzo[1,4]thiazin-6-yl)-oxazolidin-5-yl]-propyl}-1H-quinazoline-2,4-dione] gave an MIC of 0.031 µg/mL (≈ 0.0659 µM). As for `O=C1CSc2ccc(N3CC(CCCCn4c(=O)[nH]c5ccccc5c4=O)OC3=O)cc2N1` (racemic) [Example 48, rac-3-{4-[2-oxo-3-(3-oxo-3,4-dihydro-2H-benzo[1,4]thiazin-6-yl)-oxazolidin-5-yl]-butyl}-1H-quinazoline-2,4-dione], 0.031 µg/mL (≈ 0.0664 µM) was the least that counted as inhibitory (MIC). Still for that read-out and setting: for `Cc1cccc2c1c(=O)n(CCNC[C@H]1CN(c3ccc4c(n3)NC(=O)CS4)C(=O)O1)c(=O)n2C` [Example 58, 1,5-dimethyl-3-(2-{[(S)-2-oxo-3-(3-oxo-3,4-dihydro-2H-pyrido[3,2-b][1,4]thiazin-6-yl)-oxazolidin-5-ylmethyl]-amino}-ethyl)-1H-quinazoline-2,4-dione] the value was at most 0.016 µg/mL. On to `O=C1CSc2ccc(N3C[C@H](CCCn4c(=O)[nH]c5ccc(N6CCCC6)cc5c4=O)OC3=O)cc2N1` [Example 37, 3-{3-[(S)-2-oxo-3-(3-oxo-3,4-dihydro-2H-benzo[1,4]-thiazin-6-yl)-oxazolidin-5-yl]-propyl}-6-pyrrolidin-1-yl-1H-quinazoline-2,4-dione], for which the lowest concentration to inhibit growth (MIC) was 0.5 µg/mL (≈ 0.959 µM). On the same count and under the same terms, as for `Cc1cccc2c(=O)n(CCC[C@@H]3CN(c4ccc5c(c4)NC(=O)CS5)C(=O)O3)c(=O)[nH]c12` [Example 12, 8-methyl-3-{3-[(R)-2-oxo-3-(3-oxo-3,4-dihydro-2H-benzo[1,4]-thiazin-6-yl)-oxazolidin-5-yl]-propyl}-1H-quinazoline-2,4-dione], the figure is at most 0.016 µg/mL; as for `C=Cc1ccc2c(=O)n(CCC[C@@H]3CN(c4ccc5c(c4)NC(=O)CS5)C(=O)O3)c(=O)n(C)c2c1` [Example 47, 1-methyl-3-{3-[(R)-2-oxo-3-(3-oxo-3,4-dihydro-2H-benzo[1,4]-thiazin-6-yl)-oxazolidin-5-yl]-propyl}-7-vinyl-1H-quinazoline-2,4-dione], 0.063 µg/mL (≈ 0.128 µM). Still for that read-out and setting: for `Cn1c(=O)n(CCC[C@H]2CN(c3ccc4c(c3)NC(=O)CS4)C(=O)O2)c(=O)c2ccccc21` [Example 3, 1-methyl-3-{3-[(S)-2-oxo-3-(3-oxo-3,4-dihydro-2H-benzo[1,4]-thiazin-6-yl)-oxazolidin-5-yl]-propyl}-1H-quinazoline-2,4-dione] the value was at most 0.016 µg/mL; for `CC(=O)N(CCn1c(=O)c2ccccc2n(C)c1=O)C[C@@H]1CN(c2ccc3c(n2)NC(=O)CS3)C(=O)O1` [Example 68, N-[2-(1-methyl-2,4-dioxo-1,4-dihydro-2H-quinazolin-3-yl)-ethyl]-N-[(R)-2-oxo-3-(3-oxo-3,4-dihydro-2H-pyrido[3,2-b][1,4]thiazin-6-yl)-oxazolidin-5-ylmethyl]-acetamide], 0.25 µg/mL (≈ 0.477 µM). On the same count and under the same terms, for `Cc1ccc2c(=O)n(CCC[C@@H]3CN(c4ccc5c(c4)NC(=O)CS5)C(=O)O3)c(=O)[nH]c2c1` [Example 11, 7-methyl-3-{3-[(R)-2-oxo-3-(3-oxo-3,4-dihydro-2H-benzo[1,4]-thiazin-6-yl)-oxazolidin-5-yl]-propyl}-1H-quinazoline-2,4-dione] the value was 0.063 µg/mL (≈ 0.135 µM). Compound `O=C1CSc2ccc(N3C[C@@H](CCCn4c(=O)[nH]c5cccc(Cl)c5c4=O)OC3=O)cc2N1` [Example 16, 5-chloro-3-{3-[(R)-2-oxo-3-(3-oxo-3,4-dihydro-2H-benzo[1,4]thiazin-6-yl)-oxazolidin-5-yl]-propyl}-1H-quinazoline-2,4-dione] displayed a minimal inhibitory concentration (MIC) of 0.031 µg/mL (≈ 0.0637 µM). This MIC is about 2-fold lower than that of the compound before.

On to `Cn1c(=O)n(CCNCC[C@@H]2CN(c3ccc4c(c3)NC(=O)CS4)C(=O)O2)c(=O)c2cccc(Cl)c21` [Example 30, 8-chloro-1-methyl-3-(2-{2-[(R)-2-oxo-3-(3-oxo-3,4-dihydro-2H-benzo[1,4]thiazin-6-yl)-oxazolidin-5-yl]-ethylamino}-ethyl)-1H-quinazoline-2,4-dione], for which the MIC was determined as 0.125 µg/mL (≈ 0.236 µM). Consider `O=C1CSc2ccc(N3C[C@H](CCCn4c(=O)[nH]c5c(Cl)cccc5c4=O)OC3=O)nc2N1` [Example 22, 8-chloro-3-{3-[(S)-2-oxo-3-(3-oxo-3,4-dihydro-2H-pyrido[3,2-b][1,4]thiazin-6-yl)-oxazolidin-5-yl]-propyl}-1H-quinazoline-2,4-dione], for which the MIC was at most 0.016 µg/mL.

In turn, `O=C1CSc2ccc(N3C[C@@H](CNCCn4c(=O)[nH]c5c(Cl)cccc5c4=O)OC3=O)cc2N1` [Example 64, 8-chloro-3-(2-{[(R)-2-oxo-3-(3-oxo-3,4-dihydro-2H-benzo[1,4]thiazin-6-yl)-oxazolidin-5-ylmethyl]-amino}-ethyl)-1H-quinazoline-2,4-dione] came in with a minimal inhibitory concentration (MIC) of 0.25 µg/mL (≈ 0.498 µM). With `Cc1cccc2[nH]c(=O)n(CCC[C@@H]3CN(c4ccc5c(n4)NC(=O)CO5)C(=O)O3)c(=O)c12` [Example 9, 5-methyl-3-{3-[(R)-2-oxo-3-(3-oxo-3,4-dihydro-2H-pyrido[3,2-b][1,4]oxazin-6-yl)-oxazolidin-5-yl]-propyl}-1H-quinazoline-2,4-dione], the MIC was 0.031 µg/mL (≈ 0.0687 µM). Same read-out and setting: for `O=C1CSc2ccc(N3C[C@H](CCCn4c(=O)[nH]c5c(Cl)ccc(Cl)c5c4=O)OC3=O)cc2N1` [Example 40, 5,8-dichloro-3-{3-[(S)-2-oxo-3-(3-oxo-3,4-dihydro-2H-benzo[1,4]thiazin-6-yl)-oxazolidin-5-yl]-propyl}-1H-quinazoline-2,4-dione] the value was at most 0.016 µg/mL; for `Cc1cccc2c(=O)n(CCC[C@@H]3CN(c4ccc5c(n4)NC(=O)CO5)C(=O)O3)c(=O)[nH]c12` [Example 15, 8-methyl-3-{3-[(R)-2-oxo-3-(3-oxo-3,4-dihydro-2H-pyrido[3,2-b][1,4]oxazin-6-yl)-oxazolidin-5-yl]-propyl}-1H-quinazoline-2,4-dione], 0.063 µg/mL (≈ 0.14 µM).

For `Cn1c(=O)n(CCC[C@H]2CN(c3ccc4c(c3)NC(=O)CS4)C(=O)O2)c(=O)c2cccc(Cl)c21` [Example 31, 8-chloro-1-methyl-3-{3-[(S)-2-oxo-3-(3-oxo-3,4-dihydro-2H-benzo[1,4]thiazin-6-yl)-oxazolidin-5-yl]-propyl}-1H-quinazoline-2,4-dione], the minimum inhibitory concentration (MIC) was at most 0.016 µg/mL.

Turning to `Cc1cccc2[nH]c(=O)n(CCC[C@H]3CN(c4ccc5c(n4)NC(=O)CS5)C(=O)O3)c(=O)c12` [Example 8, 5-methyl-3-{3-[(S)-2-oxo-3-(3-oxo-3,4-dihydro-2H-pyrido[3,2-b][1,4]thiazin-6-yl)-oxazolidin-5-yl]-propyl}-1H-quinazoline-2,4-dione], the MIC was at most 0.016 µg/mL.

Regarding `Cc1cccc2c1c(=O)n(CCC[C@H]1CN(c3ccc4c(c3)NC(=O)CS4)C(=O)O1)c(=O)n2C` [Example 6, 1,5-dimethyl-3-{3-[(S)-2-oxo-3-(3-oxo-3,4-dihydro-2H-benzo[1,4]-thiazin-6-yl)-oxazolidin-5-yl]-propyl}-1H-quinazoline-2,4-dione], the MIC worked out at 0.031 µg/mL (≈ 0.0645 µM).

`O=C1CSc2ccc(N3C[C@@H](CCCn4c(=O)[nH]c5cc(F)c(F)cc5c4=O)OC3=O)cc2N1` [Example 38, 6,7-difluoro-3-{3-[(R)-2-oxo-3-(3-oxo-3,4-dihydro-2H-benzo[1,4]thiazin-6-yl)-oxazolidin-5-yl]-propyl}-1H-quinazoline-2,4-dione] came in with an MIC of 0.063 µg/mL (≈ 0.129 µM). In the case of `O=C1CSc2ccc(N3C[C@H](CCCn4c(=O)[nH]c5cccc(Cl)c5c4=O)OC3=O)cc2N1` [Example 18, 5-chloro-3-{3-[(S)-2-oxo-3-(3-oxo-3,4-dihydro-2H-benzo[1,4]thiazin-6-yl)-oxazolidin-5-yl]-propyl}-1H-quinazoline-2,4-dione], the MIC is at most 0.016 µg/mL.

On to `O=C1CSc2ccc(N3C[C@@H](CNCCn4c(=O)[nH]c5ccccc5c4=O)OC3=O)cc2N1` [Example 54, 3-(2-{[(R)-2-oxo-3-(3-oxo-3,4-dihydro-2H-benzo[1,4]thiazin-6-yl)-oxazolidin-5-ylmethyl]-amino}-ethyl)-1H-quinazoline-2,4-dione], for which the MIC was 1 µg/mL (≈ 2.14 µM).

Turning to `Cn1c(=O)n(CCNC[C@H]2CN(c3ccc4c(n3)NC(=O)CS4)C(=O)O2)c(=O)c2cccc(Cl)c21` [Example 62, 8-chloro-1-methyl-3-(2-{[(S)-2-oxo-3-(3-oxo-3,4-dihydro-2H-pyrido[3,2-b][1,4]thiazin-6-yl)-oxazolidin-5-ylmethyl]-amino}-ethyl)-1H-quinazoline-2,4-dione], the MIC was at most 0.016 µg/mL. Turning to `COc1cccc2c(=O)n(CCC[C@@H]3CN(c4ccc5c(c4)NC(=O)CS5)C(=O)O3)c(=O)[nH]c12` [Example 36, 8-methoxy-3-{3-[(R)-2-oxo-3-(3-oxo-3,4-dihydro-2H-benzo[1,4]-thiazin-6-yl)-oxazolidin-5-yl]-propyl}-1H-quinazoline-2,4-dione], the minimum inhibitory concentration (MIC) was 0.031 µg/mL (≈ 0.0642 µM). As to `O=C1CSc2ccc(N3C[C@@H](CCCn4c(=O)[nH]c5ccc(Cl)cc5c4=O)OC3=O)cc2N1` [Example 25, 6-chloro-3-{3-[(R)-2-oxo-3-(3-oxo-3,4-dihydro-2H-benzo[1,4]-thiazin-6-yl)-oxazolidin-5-yl]-propyl}-1H-quinazoline-2,4-dione], the minimal inhibitory concentration (MIC) was determined as 0.063 µg/mL (≈ 0.129 µM). Same read-out and setting: for `Cc1cccc2[nH]c(=O)n(CCC[C@H]3CN(c4ccc5c(c4)NC(=O)CS5)C(=O)O3)c(=O)c12` [Example 7, 5-methyl-3-{3-[(S)-2-oxo-3-(3-oxo-3,4-dihydro-2H-benzo[1,4]-thiazin-6-yl)-oxazolidin-5-yl]-propyl}-1H-quinazoline-2,4-dione] the value was at most 0.016 µg/mL.

Staying with this experiment, now noted: microdilution in cation-adjusted Mueller-Hinton Broth.
As to `O=C1CSc2ccc(N3C[C@@H](CNCCn4c(=O)c5cccc6c5n(c4=O)CCC6)OC3=O)cc2N1` [Example 66, 2-(2-{[(R)-2-oxo-3-(3-oxo-3,4-dihydro-2H-benzo[1,4]thiazin-6-yl)-oxazolidin-5-ylmethyl]-amino}-ethyl)-6,7-dihydro-5H-pyrido[3,2,1-#]quinazoline-1,3-dione], the “MIC for S. aureus 29213” value was determined as 0.031 µg/mL.
